Measurements from patent US20200163334A1, “INSECT REPELLENT” (FMC Corporation, priority 2016, published 2020).

Legend:
[1] = system: Red imported fire ant (Solenopsis invicta); assay: Fire ant repellency, baited plates near mounds (Example 6); assay type: in vivo; conditions: separate trial; about 100 mg per plate, within 4 feet of mounds
From the text: Formulation A was poured into a plastic spray bottle and was sprayed onto 20, eight inch paper plates, one squeeze of the pump trigger per plate. […] Ten treated plates were placed randomly on the ground on a farm in Sparks, Ga., USA and ten control (untreated) plates were placed on the ground about 3 feet from the treated plates. Ten treated plates were placed about 4 feet from active Red imported fire ant mounds and ten control plates were placed near the same mounds no closer than 3 feet from the treated plates. Each plate received approximately 15 mL of an aqueous 25% honey solution.
Fifty percent of the control plates had active fire ant feeding within 15 minutes and 100% of the control plates had active fire ant feeding within 30 minutes.

insects = conditions: Table 1 of U.S. Pat. No. 6,958,146, 7,867,479 and 8,092,790; cited from earlier work
[2] = system: house flies (Musca domesticae); conditions: U.S. Pat. No. 6,958,146, 7,867,479 and 8,092,790; cited from earlier work

In the case of `COC(=O)c1ccccc1N` [methyl anthranilate], the “deterrence of fire ant feeding” value [1] is listed as “did not deter fire ants from feeding”, the “insects on sticky traps” value (insects) is listed as “quickly became covered with hundreds of insects” and the house fly response [2] is listed as “repelled”.
